Data on one compound can be found in patent publication US8029980B2, “Identification and use of agents that modulate oncogenic transcription agent activity” (The Board of Trustees of the University of Illinois, priority 2006, dated 2011).

Assay [1] deals with Breast cancer cell lines BT-474, MDA-MB-231, T-47D and ZR-75-1. As to the kind of experiment: FoxM1 and cleaved caspase-3 immunoblot in breast cancer cell lines. The class given is cell-based, human. As to conditions: 5 μM, 48 hrs. On the procedure: FIG. 7. […] Breast cancer cell lines BT-474, MDA-MB-231, T-47D and ZR-75-1 were treated with 5 μM Siomycin and thiostrepton, respectively, for 48 hrs and the cell lysates were analyzed for the levels of FoxM1 and cleaved caspase-3 by immunoblotting.
(§1) Immunoblotting was performed as described (18-20) with antibodies specific for p21 (556431; BD Pharmingen), survivin (sc-10811; Santa Cruz), cleaved caspase-3 (9664; Cell Signaling), and β-actin (A5441; Sigma) antibodies. Immunoblot for FoxM1 was done using the previously generated rabbit antisera (2), and phospho-FoxM1 was detected using the MPM2 monoclonal antibody (Upstate Biotechnology) which recognizes the phosphorylated protein sequence phosphoserine/phosphothreonine-proline.

The test system of assay [2] is human breast cancer MDA-MB-231 cell line. As to conditions: earlier report (ref. 26); cited from earlier work.
Assay [3] deals with FoxM1. The experiment in a line: FoxM1 protein (immunoblot) and mRNA (RT-PCR) levels in C3-Luc cells. Type of assay: cell-based, human. To be noted: 24 hrs.
Source text: FIG. 3. Mechanisms of FoxM1 inhibition by Siomycin A. (A) C3-Luc cells treated as indicated were harvested after 8 hrs and cell lysates were used for immunoprecipitation of FoxM1 protein. These samples were resolved on an SDS-PAGE gel and immunoblotted to determine total and phospho-FoxM1 levels. (B) C3-Luc cells treated with Siomycin A or DMSO were harvested 24 hrs later and the lysates were used to determine FoxM1 protein levels by immunoblotting. (C) RNA from C3-Luc cells treated with Siomycin A or DMSO for 24 hrs was used to determine levels of FoxM1 mRNA using real-time quantitative RT-PCR.
Cells treated with Siomycin A or DMSO (control) were harvested 24 hrs later and RNA was extracted using the TRIzol reagent (15596-026; Invitrogen). cDNA was prepared from this RNA using the Bio-Rad cDNA synthesis kit. […]
as §1

Assay [4] deals with NB7 and NB7-casp8 neuroblastoma cells. The experiment in a line: FoxM1 and cleaved caspase-3 immunoblot in neuroblastoma cells. Type of assay: cell-based. To be noted: 24 hrs. The method, then: FIG. 11. […] Cells were treated with Siomycin A, thiostrepton or DMSO, harvested 24 hrs later and the lysates were used to determine proteins levels by immunoblotting with antibodies specific for FoxM1, cleaved caspase-3 and β-actin (AS441, Sigma).

Assay [5] relates to Liver cancer cell lines Huh7, Hep-3B and SK-Hep. The experiment in a line: FoxM1 and cleaved caspase-3 immunoblot in liver cancer cell lines. The class given is cell-based, human. To be noted: 10 μM, 48 hrs. On the procedure:
FIG. 9. […] Liver cancer cell lines Huh7, Hep-3B and SK-Hep were treated with 10 μM Siomycin A and thiostrepton, respectively, for 48 hrs, and the cell lysates were analyzed for the levels of FoxM1 and cleaved caspase-3 by immunoblotting.
as §1
First, we treated liver cancer cell lines Huh7, Hep-3B and SK-Hep that have deleted or mutant p53 with these compounds for 48 hrs, and the cell lysates were analyzed for the levels of FoxM1 and cleaved caspase-3 by immunoblotting.

Assay [6] has as its system SV40-transformed MRC-5 human fetal lung fibroblasts. The experiment in a line: Apoptosis assay (DAPI staining, caspase-3 and survivin immunoblot) in transformed fibroblasts. Type of assay: cell-based. As to conditions: SV40-transformed cells. The method, then: FIG. 4. Anti-cancer properties of Siomycin A. (A) Representative photographs from soft agar experiment as described in Example 1 are shown. (B) Number of colonies in the soft agar were quantitated and plotted in the form of bar graphs. (C) Wild type and SV40-transformed MRC-5 human fetal lung fibroblasts were treated with indicated concentrations of Siomycin A for 48 hrs. Photographs from phase contrast microscopy (top panel) and fluorescent microscopy after DAPI staining (bottom panel) are shown. (D) Apoptotic nuclei from normal and SV40-transformed MRC-5 fibroblasts treated with indicated concentrations of Siomycin A for 24 hrs were scored after DAPI staining and percentage cell death (mean±sd; n=3) is shown. (E) Wild type and SV40-transformed MRC-5 fibroblasts were treated with Siomycin A as indicated for 48 hrs and the cell lysates were used for immunoblotting and probed for levels of survivin and cleaved caspase-3.
as §1
Apoptosis was detected by DAPI (4′,6-diamidino-2-phenylindole) staining. All treatments were done in triplicates in 6-well plates and cells were stained with DAPI and visualized by fluorescent microscopy. Four random fields for each sample were photographed and at least 500 cells per field were counted to estimate apoptosis. The data is represented as mean±sd.

Molecules are shown by their SMILES.

On to `C=C(NC(=O)C(=C)NC(=O)c1csc(C2=N[C@@H]3c4csc(n4)[C@H]4NC(=O)c5csc(n5)[C@H]([C@](C)(O)[C@@H](C)O)NC(=O)[C@H]5CSC(=N5)/C(=C/C)NC(=O)[C@H]([C@@H](C)O)NC(=O)c5csc(n5)[C@]3(CC2)NC(=O)[C@H](C)NC(=O)C(=C)NC(=O)C(=C)NC(=O)[C@H](C(C)C)N[C@@H]2C=Cc3c([C@H](C)O)cc(nc3[C@H]2O)C(=O)O[C@@H]4C)n1)C(N)=O` [Siomycin A], for which, in assay [1], the FoxM1 expression result is “inhibit FoxM1 expression” and the “apoptosis (cleaved caspase-3)” value was “induce apoptosis”. The “pro-apoptotic activity in screen” value in assay [2] is on record as “identified in a screen for pro-apoptotic compounds”. In assay [3], the “FoxM1 mRNA levels” value is “significantly decreased” and the FoxM1 protein levels result was “significantly decreased”. Moreover, the “apoptosis (cleaved caspase-3)” value in assay [4] (NB7 and NB7 with reconstituted caspase-8) is reported as “induce apoptosis in these neuroblastoma cells independently from caspase-8”. The FoxM1 protein expression result in assay [4] (immunoblot) was “inhibit FoxM1 protein expression”. For the same compound, in assay [5], the FoxM1 protein expression entry was “repress FoxM1 protein expression” and the “apoptosis (cleaved caspase-3)” value was “induce apoptosis”. Further, in assay [6] (48 hrs, immunoblot), the “cleavage of caspase-3” value was “showed cleavage of caspase-3” and the survivin levels result is recorded as “effectively repress survivin levels”. Besides, the “apoptosis / cell death” value in assay [6] (forty-eight hours after treatment) is “dose dependent apoptosis”.
